This note sets out measurements from patent US11920139B2, “Regulated expression of antigen and/or regulated attenuation to enhance vaccine immunogenicity and/or safety” (priority 2007, dated 2024).

Bounds are passed on as bounds.

Assay [1] has as its system Salmonella Typhi strain χ9633(pYA4088). The assay can be described thus: Minimum inhibitory concentrations of antibiotics. The class given is cell-based. Particulars: for MIC: Salmonella enterica, TYPHI, read-out: Minimum inhibitory concentration. The text has this: (§1) Master seed and working seed banks of each vaccine organism in separate vials have been prepared for frozen storage in vegetable-based cryopreservative. […] Antibiotic sensitivity testing has confirmed that these strains are sensitive to ciprofloxacin, ampicillin, ceftriaxone, trimethoprim/sulfamethoxazole (Table 15). Ampicillin, ciprofloxacin, ceftriaxone and trimethoprim/sulfamethoxazole are typically tested for minimum inhibitory concentrations (MICs) for Salmonella.

Assay [2] relates to the three vaccine strains (RASV-Sp). The assay can be described thus: Antibiotic sensitivity testing of the vaccine strains. The class given is cell-based, Salmonella Typhi.
Text: as §1

Assay [3] relates to Salmonella Typhi strain χ9640(pYA4088). The assay can be described thus: microbe, parasite or virus in culture. Type of assay: cell-based. Conditions: for MIC: Salmonella enterica, TYPHI, read-out: Minimum inhibitory concentration. From the text:
(§2) Master seed and working seed banks of each vaccine organism in separate vials have been prepared for frozen storage in vegetable-based cryopreservative. […] Ampicillin, ciprofloxacin, ceftriaxone and trimethoprim/sulfamethoxazole are typically tested for minimum inhibitory concentrations (MICs) for Salmonella.

Assay [4] concerns Salmonella Typhi strain χ9639(pYA4088). The assay is described as follows: microbe, parasite or virus in culture. Particulars: for MIC: Salmonella enterica, TYPHI, read-out: Minimum inhibitory concentration. The class given is cell-based.
Text: as §2

On to `CC1(C)S[C@@H]2[C@H](NC(=O)[C@H](N)c3ccccc3)C(=O)N2[C@H]1C(=O)O` [ampicillin], for which the MIC in assay [1], in assay [3] and in assay [4] was under 2 µg/mL throughout. Besides, in assay [2], the “antibiotic sensitivity” value is reported as “sensitive”.

For the compound `CO/N=C(\C(=O)N[C@@H]1C(=O)N2C(C(=O)O)=C(CSc3nc(=O)c(=O)[nH]n3C)CS[C@H]12)c1csc(N)n1` [ceftriaxone], the figures for the MIC in assay [1], in assay [3] and in assay [4] were under 0.25 µg/mL, under 1 µg/mL and under 1 µg/mL, respectively. Besides, the “antibiotic sensitivity” value in assay [2] is recorded as “sensitive”.

With `O=C(O)c1cn(C2CC2)c2cc(N3CCNCC3)c(F)cc2c1=O` [ciprofloxacin], the MIC in assay [1], in assay [3] and in assay [4] was under 0.25 µg/mL in each case. Also, the “antibiotic sensitivity” value in assay [2] is given as “sensitive”.

On to trimethroprim-sulfamethoxazole, for which the Minimum inhibitory concentration in assay [1], in assay [3] and in assay [4] was under 20 µg/mL in each case. Moreover, the “antibiotic sensitivity” value in assay [2] is listed as “sensitive”.
